Assay results as given in patent publication US20240238423A9, “TETRAHYDROISOQUINOLINE HETEROBIFUNCTIONAL BCL-XL DEGRADERS” (Treeline Biosciences, Inc., priority 2022, published 2024).
Like-named read-outs stand apart in the source and are kept apart here.

Molecular target: T1, Human BCL-XL protein (N-terminal HiBiT tagged BCL-XL in HT1080 cells) (Homo sapiens, UniProt Q07817)
T1 construct: expressed in transfected cells; host or cells: HT-1080 (ATCC CCL-121), stably transduced with lentivirus pLV-UBC-N-HiBiT-BCL-XL-PGK-puro and selected with puromycin
Test: HiBiT based degradation assay
Type: cell-based
Conditions: HT1080 cells expressing HiBiT-BCL-XL; for Ymin (6 h) / Ymin (24 h): BCL-XL degradation normalized with DMSO control; for DC50: BCL-XL degradation
Method in brief: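 This HiBiT degradation assay measured loss of BCL-XL in HT1080 cells that stably express an N-terminal HiBiT-BCL-XL fusion delivered by lentivirus. Cells were added to compound-spotted 384-well plates, and luminescence was read on a PHERAstar FSX reader. Signal was expressed relative to DMSO controls, curves were fitted by four-parameter logistic regression, and for hook-shaped curves the Ymin point served as the bottom plateau when calculating EC50.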

T1 sequence (Q07817 whole entry): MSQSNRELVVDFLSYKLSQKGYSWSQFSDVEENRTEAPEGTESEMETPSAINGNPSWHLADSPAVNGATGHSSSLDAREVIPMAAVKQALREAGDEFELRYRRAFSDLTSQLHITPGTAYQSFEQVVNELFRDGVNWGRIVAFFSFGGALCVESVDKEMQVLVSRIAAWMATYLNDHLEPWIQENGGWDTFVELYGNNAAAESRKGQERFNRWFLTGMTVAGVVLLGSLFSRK

Row | Ymin (6 h) | Ymin (24 h) | DC50 (6 h, read-out: EC50 (6 h)) | DC50 (24 h, read-out: EC50 (24 h)) | SMILES
1 | B (50% ≤ Ymin < 70%) | B (50% ≤ Ymin < 70%) | < 0.1 µM | 0.1 to 1 µM | Cc1c(OCCCN2CCN(CC(=O)Nc3cccc4c(C5CCC(=O)NC5=O)nn(C)c34)CC2)cccc1-c1ccc(N2CCc3cccc(C(=O)Nc4nc5ccccc5s4)c3C2)nc1C(=O)O (stereo not drawn) [Compound 105, 6-[8-(1,3-benzothiazol-2-ylcarbamoyl)-3,4-dihydro-1H-isoquinolin-2-yl]-3-[3-[3-[4-[2-[[3-(2,6-dioxo-3-piperidyl)-1-methyl-indazol-7-yl]amino]-2-oxo-ethyl]piperazin-1-yl]propoxy]-2-methyl-phenyl]pyridine-2-carboxylic acid]
2 | – | A (Ymin < 50%) | – | < 0.1 µM | Cc1cc(OCC[C@@H](C)C2CCN(CC(=O)Nc3ccc4c(C5CCC(=O)NC5=O)nn(C)c4c3)CC2)ccc1-c1ccc(N2CCc3cccc(C(=O)Nc4nc5ccccc5s4)c3C2)nc1C(=O)O (single isomer, unassigned) [Compound 266a]
3 | – | B (50% ≤ Ymin < 70%) | – | < 0.1 µM | Cc1c(O[C@H]2CC[C@H](CC(=O)N3CCN(c4cccc5c(C6CCC(=O)NC6=O)nn(C)c45)CC3)CC2)cccc1-c1ccc(N2CCc3cccc(C(=O)Nc4nc5ccccc5s4)c3C2)nc1C(=O)O (stereo partly drawn) [Compound 182a, 6-(8-(benzo[d]thiazol-2-ylcarbamoyl)-3,4-dihydroisoquinolin-2(1H)-yl)-3-(3-(((1r,4r)-4-(2-(4-(3-(2,6-dioxopiperidin-3-yl)-1-methyl-1H-indazol-7-yl)piperazin-1-yl)-2-oxoethyl)cyclohexyl)oxy)-2-methylphenyl)picolinic acid]
4 | B (50% ≤ Ymin < 70%) | – | < 0.1 µM | – | Cc1c(-c2ccc(N3CCc4cccc(C(=O)Nc5nc6ccccc6s5)c4C3)nc2C(=O)NCCCCCC(=O)Nc2cccc3c(C4CCC(=O)NC4=O)nn(C)c23)cnn1CC12CC3CC(CC(C3)C1)C2 (stereo not drawn) [Compound 108, 2-(5-(1-(((3r,5r,7r)-adamantan-1-yl)methyl)-5-methyl-1H-pyrazol-4-yl)-6-((6-((3-(2,6-dioxopiperidin-3-yl)-1-methyl-1H-indazol-7-yl)amino)-6-oxohexyl)carbamoyl)pyridin-2-yl)-N-(benzo[d]thiazol-2-yl)-1,2,3,4-tetrahydroisoquinoline-8-carboxamide]
5 | B (50% ≤ Ymin < 70%) | A (Ymin < 50%) | < 0.1 µM | < 0.1 µM | Cc1c(OCCCN2CCN(CC(=O)Nc3ccc4c(C5CCC(=O)NC5=O)nn(C)c4c3)[C@@H](C(F)(F)F)C2)cccc1-c1ccc(N2CCc3cccc(C(=O)Nc4nc5ccccc5s4)c3C2)nc1C(=O)O (stereo partly drawn) [Compound 187b, 6-(8-(benzo[d]thiazol-2-ylcarbamoyl)-3,4-dihydroisoquinolin-2(1H)-yl)-3-(3-(3-((3R)-4-(2-((3-(2,6-dioxopiperidin-3-yl)-1-methyl-1H-indazol-6-yl)amino)-2-oxoethyl)-3-(trifluoromethyl)piperazin-1-yl)propoxy)-2-methylphenyl)picolinic acid]
6 | – | A (Ymin < 50%) | – | < 0.1 µM | Cc1cc(OCC[C@H](C)C2CCN(CC(=O)Nc3ccc4c(C5CCC(=O)NC5=O)nn(C)c4c3)CC2)ccc1-c1ccc(N2CCc3cccc(C(=O)Nc4nc5ccccc5s4)c3C2)nc1C(=O)O (single isomer, unassigned) [Compound 266b]
7 | B (50% ≤ Ymin < 70%) | B (50% ≤ Ymin < 70%) | 0.1 to 1 µM | < 0.1 µM | Cc1c(OCCCN2CCN(CC(=O)Nc3ccc4c(C5CCC(=O)NC5=O)nn(C)c4c3)[C@H](C(F)(F)F)C2)cccc1-c1ccc(N2CCc3cccc(C(=O)Nc4nc5ccccc5s4)c3C2)nc1C(=O)O (stereo partly drawn) [Compound 187a, 6-(8-(benzo[d]thiazol-2-ylcarbamoyl)-3,4-dihydroisoquinolin-2(1H)-yl)-3-(3-(3-((3S)-4-(2-((3-(2,6-dioxopiperidin-3-yl)-1-methyl-1H-indazol-6-yl)amino)-2-oxoethyl)-3-(trifluoromethyl)piperazin-1-yl)propoxy)-2-methylphenyl)picolinic acid]
8 | – | A (Ymin < 50%) | – | < 0.1 µM | Cc1c(CCCCC2CCN(CC(=O)Nc3ccc4c(C5CCC(=O)NC5=O)nn(C)c4c3)CC2)cccc1-c1ccc(N2CCc3cccc(C(=O)Nc4nc5ccccc5s4)c3C2)nc1C(=O)O (stereo not drawn) [Compound 292, 6-[8-(1,3-benzothiazol-2-ylcarbamoyl)-3,4-dihydro-1H-isoquinolin-2-yl]-3-[3-[4-[1-[2-[[3-(2,6-dioxo-3-piperidyl)-1-methyl-indazol-6-yl]amino]-2-oxo-ethyl]-4-piperidyl]butyl]-2-methyl-phenyl]pyridine-2-carboxylic acid]
9 | – | A (Ymin < 50%) | – | < 0.1 µM | Cc1c(OCCCC2CCN(CCCc3ccc4c(C5CCC(=O)NC5=O)nn(C)c4c3)CC2)cccc1-c1ccc(N2CCc3cccc(C(=O)Nc4nc5ccccc5s4)c3C2)nc1C(=O)O (stereo not drawn) [Compound 305, 6-(8-(benzo[d]thiazol-2-ylcarbamoyl)-3,4-dihydroisoquinolin-2(1H)-yl)-3-(3-(3-(1-(3-(3-(2,6-dioxopiperidin-3-yl)-1-methyl-1H-indazol-6-yl)propyl)piperidin-4-yl)propoxy)-2-methylphenyl)picolinic acid]
10 | – | A (Ymin < 50%) | – | < 0.1 µM | Cc1c(OCC(F)(F)CN2C[C@@H](C)N(CC(=O)N3CCN(c4ccc5c(C6CCC(=O)NC6=O)nn(C)c5c4)CC3)[C@@H](C)C2)cccc1-c1ccc(N2CCc3cccc(C(=O)Nc4nc5ccccc5s4)c3C2)nc1C(=O)O (stereo partly drawn) [Compound 185a, 6-[8-(1,3-benzothiazol-2-ylcarbamoyl)-3,4-dihydro-1H-isoquinolin-2-yl]-3-[3-[3-[(3R,5S)-4-[2-[4-[3-(2,6-dioxo-3-piperidyl)-1-methyl-indazol-6-yl]piperazin-1-yl]-2-oxo-ethyl]-3,5-dimethyl-piperazin-1-yl]-2,2-difluoro-propoxy]-2-methyl-phenyl]pyridine-2-carboxylic acid]
11 | – | A (Ymin < 50%) | – | < 0.1 µM | Cc1c(OCC(F)(F)CN2C[C@@H](C)N(CC(=O)N3CCN(c4cccc5c(C6CCC(=O)NC6=O)nn(C)c45)CC3)[C@@H](C)C2)cccc1-c1ccc(N2CCc3cccc(C(=O)Nc4nc5ccccc5s4)c3C2)nc1C(=O)O (stereo partly drawn) [Compound 179a, 6-[8-(1,3-benzothiazol-2-ylcarbamoyl)-3,4-dihydro-1H-isoquinolin-2-yl]-3-[3-[3-[(3R,5S)-4-[2-[4-[3-(2,6-dioxo-3-piperidyl)-1-methyl-indazol-7-yl]piperazin-1-yl]-2-oxo-ethyl]-3,5-dimethyl-piperazin-1-yl]-2,2-difluoro-propoxy]-2-methyl-phenyl]pyridine-2-carboxylic acid]
12 | – | A (Ymin < 50%) | – | < 0.1 µM | Cc1c(O[C@H]2CC[C@H](C[C@@H](C)CN3CCN(c4cccc5c(C6CCC(=O)NC6=O)nn(C)c45)CC3)CC2)cccc1-c1ccc(N2CCc3cccc(C(=O)Nc4nc5ccccc5s4)c3C2)nc1C(=O)O (single isomer, unassigned) [Compound 284b, 6-(8-(benzo[d]thiazol-2-ylcarbamoyl)-3,4-dihydroisoquinolin-2(1H)-yl)-3-(3-(((1R,4r)-4-((2R*)-3-(4-(3-(2,6-dioxopiperidin-3-yl)-1-methyl-1H-indazol-7-yl)piperazin-1-yl)-2-methylpropyl)cyclohexyl)oxy)-2-methylphenyl)picolinic acid]
